How the values were obtained:
Type in all cases: functional
Escherichia coli [1] = test: Antimicrobial activity against Escherichia coli ATCC 25922 assessed as diameter of growth inhibition zone at 1000 ug/ml after 24 hr by agar well plate method; conditions: ATCC 25922, 24 h, read-out: DIZ
Aspergillus flavus [2] = test: Antimicrobial activity against Aspergillus flavus assessed as diameter of growth inhibition zone at 500 ug/ml after 72 hr by agar well plate method; conditions: read-out: DIZ
Candida albicans [3] = test: Antimicrobial activity against Candida albicans MTCC 227 assessed as diameter of growth inhibition zone at 1000 ug/ml after 72 hr by agar well plate method; conditions: MTCC 227, 72 h, read-out: DIZ
Staphylococcus aureus [4] = test: Antimicrobial activity against Staphylococcus aureus ATCC 25923 assessed as diameter of growth inhibition zone at 500 ug/ml after 24 hr by agar well plate method; conditions: ATCC 25923, 24 h, read-out: DIZ
Candida albicans [5] = test: Antimicrobial activity against Candida albicans MTCC 227 assessed as diameter of growth inhibition zone at 500 ug/ml after 72 hr by agar well plate method; conditions: MTCC 227, 72 h, read-out: DIZ
Pseudomonas aeruginosa [6] = test: Antimicrobial activity against Pseudomonas aeruginosa ATCC 27853 assessed as diameter of growth inhibition zone at 500 ug/ml after 24 hr by agar well plate method; conditions: ATCC 27853, 24 h, read-out: DIZ
Aspergillus flavus [7] = test: Antimicrobial activity against Aspergillus flavus assessed as diameter of growth inhibition zone at 1000 ug/ml after 72 hr by agar well plate method; conditions: read-out: DIZ
Escherichia coli [8] = test: Antimicrobial activity against Escherichia coli ATCC 25922 assessed as diameter of growth inhibition zone at 500 ug/ml after 24 hr by agar well plate method; conditions: ATCC 25922, 24 h, read-out: DIZ
[9] = system: Chrysosporium keratinophilum; test: Antimicrobial activity against Chrysosporium keratinophilum assessed as diameter of growth inhibition zone at 1000 ug/ml after 72 hr by agar well plate method; conditions: read-out: DIZ
Pseudomonas aeruginosa [10] = test: Antimicrobial activity against Pseudomonas aeruginosa ATCC 27853 assessed as diameter of growth inhibition zone at 1000 ug/ml after 24 hr by agar well plate method; conditions: ATCC 27853, 24 h, read-out: DIZ
Staphylococcus aureus [11] = test: Antimicrobial activity against Staphylococcus aureus ATCC 25923 assessed as diameter of growth inhibition zone at 1000 ug/ml after 24 hr by agar well plate method; conditions: ATCC 25923, 24 h, read-out: DIZ
[12] = system: Chrysosporium keratinophilum; test: Antimicrobial activity against Chrysosporium keratinophilum assessed as diameter of growth inhibition zone at 500 ug/ml after 72 hr by agar well plate method; conditions: read-out: DIZ

Row | SMILES | zone of inhibition at 1000 µg/mL (Escherichia coli [1]) | zone of inhibition at 500 µg/mL (Aspergillus flavus [2]) | zone of inhibition at 1000 µg/mL (Candida albicans [3]) | zone of inhibition at 500 µg/mL (Staphylococcus aureus [4]) | zone of inhibition at 500 µg/mL (Candida albicans [5]) | zone of inhibition at 500 µg/mL (Pseudomonas aeruginosa [6]) | zone of inhibition at 1000 µg/mL (Aspergillus flavus [7]) | zone of inhibition at 500 µg/mL (Escherichia coli [8]) | zone of inhibition at 1000 µg/mL [9] | zone of inhibition at 1000 µg/mL (Pseudomonas aeruginosa [10]) | zone of inhibition at 1000 µg/mL (Staphylococcus aureus [11]) | zone of inhibition at 500 µg/mL [12]
1 | COc1ccc(-c2nn(-c3ccccc3)cc2C2CC(c3ccc(SC)cc3)=NN2c2ccccc2)cc1 (centres undefined) | 2 mm | 0 mm | 0 mm | 3 mm | 0 mm | 2 mm | 0 mm | 1 mm | 0 mm | 4 mm | 4 mm | 0 mm
2 | Clc1ccc(C2=NN(c3ccccc3)C(c3cn(-c4ccccc4)nc3-c3ccc(Br)cc3)C2)c(Cl)c1 (centres undefined) | 8 mm | 1 mm | 3 mm | 6 mm | 1 mm | 5 mm | 4 mm | 5 mm | 4 mm | 5 mm | 8 mm | 2 mm
3 | COc1ccc(-c2nn(-c3ccccc3)cc2C2CC(c3ccc(-c4ccccc4)cc3)=NN2c2ccccc2)cc1 (centres undefined) | 4 mm | 0 mm | 0 mm | 2 mm | 0 mm | 2 mm | 0 mm | 2 mm | 0 mm | 5 mm | 4 mm | 0 mm
4 | CN[C@@H]1[C@H](O[C@H]2[C@H](O[C@H]3[C@H](O)[C@@H](O)[C@H](N=C(N)N)[C@@H](O)[C@@H]3N=C(N)N)O[C@@H](C)[C@]2(O)C=O)O[C@@H](CO)[C@H](O)[C@H]1O [STREPTOMYCIN] | 16 mm |  |  | 10 mm |  | 13 mm |  | 10 mm |  | 16 mm | 15 mm | 
5 | OC(Cn1cncn1)(Cn1cncn1)c1ccc(F)cc1F [FLUCONAZOLE] |  | 10 mm | 22 mm |  | 20 mm |  | 13 mm |  | 17 mm |  |  | 15 mm
6 | Clc1ccc(C2=NN(c3ccccc3)C(c3cn(-c4ccccc4)nc3-c3ccccc3)C2)c(Cl)c1 (centres undefined) | 0 mm | 0 mm | 0 mm | 0 mm | 0 mm | 0 mm | 0 mm | 0 mm | 0 mm | 0 mm | 0 mm | 0 mm
7 | CSc1ccc(C2=NN(c3ccccc3)C(c3cn(-c4ccccc4)nc3-c3ccc(Cl)cc3)C2)cc1 (centres undefined) | 5 mm | 2 mm | 3 mm | 5 mm | 1 mm | 4 mm | 3 mm | 4 mm | 3 mm | 7 mm | 8 mm | 1 mm
8 | CSc1ccc(C2=NN(c3ccccc3)C(c3cn(-c4ccccc4)nc3-c3ccc(Br)cc3)C2)cc1 (centres undefined) | 7 mm | 3 mm | 4 mm | 7 mm | 2 mm | 6 mm | 4 mm | 6 mm | 6 mm | 8 mm | 9 mm | 5 mm
9 | Clc1ccc(-c2nn(-c3ccccc3)cc2C2CC(c3ccc(Cl)cc3Cl)=NN2c2ccccc2)cc1 (centres undefined) | 6 mm | 2 mm | 4 mm | 4 mm | 2 mm | 6 mm | 4 mm | 4 mm | 5 mm | 8 mm | 7 mm | 2 mm
10 | CSc1ccc(C2=NN(c3ccccc3)C(c3cn(-c4ccccc4)nc3-c3ccccc3)C2)cc1 (centres undefined) | 3 mm | 0 mm | 0 mm | 0 mm | 0 mm | 2 mm | 0 mm | 1 mm | 0 mm | 3 mm | 2 mm | 0 mm
11 | COc1ccc(-c2nn(-c3ccccc3)cc2C2CC(c3ccc(Cl)cc3Cl)=NN2c2ccccc2)cc1 (centres undefined) | 3 mm | 0 mm | 0 mm | 3 mm | 0 mm | 1 mm | 0 mm | 2 mm | 0 mm | 4 mm | 4 mm | 0 mm
12 | Brc1ccc(-c2nn(-c3ccccc3)cc2C2CC(c3ccc(-c4ccccc4)cc3)=NN2c2ccccc2)cc1 (centres undefined) | 9 mm | 5 mm | 5 mm | 4 mm | 4 mm | 5 mm | 6 mm | 6 mm | 4 mm | 7 mm | 6 mm | 3 mm
13 | Clc1ccc(-c2nn(-c3ccccc3)cc2C2CC(c3ccc(-c4ccccc4)cc3)=NN2c2ccccc2)cc1 (centres undefined) | 7 mm | 3 mm | 5 mm | 6 mm | 2 mm | 6 mm | 5 mm | 5 mm | 4 mm | 4 mm | 8 mm | 3 mm
